The results in this text go back to article PMC12769565, “Design, synthesis and biological activity of glycoconjugated ADAMTS5 exosite inhibitors: applications in osteoarthritis and ovarian cancer models” (Scientific Reports, 2025).

Values after ≈ are worked out from the molar mass of the structure shown.

Data set [1] concerns human OA cartilage explants. Nature of the data set: Aggrecan fragments released from human OA cartilage (anti-AGEG immunoblot). Format: cell-based. The note with it: 48 h, anti-AGEG neoepitope, read-out: inhibition of aggrecan degradation. As for the experimental part: Samples were separated by SDS-PAGE under reducing conditions (5% β-mercaptoethanol) on BOLT, 4–12%, Bis-Tris Gels (Invitrogen) in MES Running Buffer (NuPAGE). Proteins were transferred onto a nitrocellulose membrane using Trans-Blot Turbo™ Transfer System (BioRad), at 25 V, 2.5 A for 30 min. Membranes were blocked with 3% BSA/PBS for 1 h at room temperature. Aggrecan fragments generated by ADAMTS cleavage at E^392-A^393[8] or E^1953-A^1954[68] were detected using mouse monoclonal anti-ARGSV antibody (BC3, Life Technologies, MA3-16888, 4 µg/ml) or polyclonal anti-AGEG neoepitope antibody (serum, 1:200 dilution)[12],[33], respectively, followed by the appropriate horseradish peroxidase (HRP)-conjugated secondary antibodies (polyclonal Goat Anti-Mouse P0447, 0.1 ng/µl and polyclonal Goat Anti-Rabbit, P0448, 0.03 ng/µl, both from Agilent Technologies LDA UK Ltd). All antibodies were diluted in 0.5% bovine serum albumin (BSA)/PBS. Washes between each step were carried out in triplicate, for 15 min each, with PBS-Tween (0.1%). Following addition of the chemiluminescent HRP substrate (Millipore, WBKL30500) membranes were imaged using Bio-Rad Chemidoc Touch Imaging System. Analysis was carried out using BioRad ImageLab software (version 5.2.1) using sequential exposures to avoid saturation artifacts. Figures for unprocessed blots are included in Supplementary information Fig. S4 and Fig. S5 with highlighted regions (in red boxes) corresponding to the data reported in the main manuscript figures.
Human OA cartilage was obtained from Clatterbridge Hospital, Wirral, UK, following total knee arthroplasty procedures with informed patient consent in full compliance with national and institutional ethical requirements, the United Kingdom Human Tissue Act, and the Declaration of Helsinki (REC 18/WA/0344). […]
Explants were incubated in 0.2 ml of fresh DMEM containing compound 2 (10 or 100 µM) or 4b (10 µM) for 48 h. […] Proteins were precipitated using ice-cold acetone, dissolved in the SDS-sampling buffer and then analyzed by immunoblot using anti-AGEG aggrecan neoepitope antibody as before.
On the technique in general: In western blotting, separated proteins are transferred to a membrane and probed.

Data set [2] can be described thus: Solubility determination in PBS by UV-Vis absorbance at 284 nm. The note with it: PBS buffer, aqueous buffer, kinetic from dmso stock, pH 7.4, room temperature, read-out: upper solubility limit. In kind it is physicochemical. As for the experimental part: The solubility of compounds 4b and 2 was assessed in PBS at pH 7.4 and room temperature. Stock solutions of the compounds (10 mM in DMSO) were diluted in PBS buffer to achieve final concentrations between 1,000 µM − 12.5 µM. Two-hundred microliters of the proper compound solutions in PBS buffer were added in a 96-well plate, and the absorbance was measured at 284 nm using a SPECTROstar Nano UV-Vis spectrophotometer (220–1,000 nm, Ortenberg, Germany). Analyses were performed in triplicate, and the mean value was calculated for each sample.

Data set [3] concerns human non-OA chondrocytes. As to the kind of experiment: Cell viability MTS assay. Format: cell-based. The note with it: 72 h, vs DMSO control. The method, then: Non-OA human chondrocytes were isolated from knee cartilage tissues obtained from the Stanmore BioBank, Institute of Orthopaedics, Royal National Orthopaedic Hospital, Stanmore, UK, from 3 donors following informed consent and approval by the Royal Veterinary College Ethics and Welfare Committee (Institutional approval URN 2012 0048 H) as before.
(§1) Cell viability was assessed using CellTiter® 96 Aqueous One Solution Cell Proliferation Assay (Promega, G3582) following the manufacturer’s protocol. The assay is based on the reduction of [3-(4,5-dimethylthiazol-2-yl)-5-(3-carboxymethoxyphenyl)-2-(4-sulfophenyl)-2 H-tetrazolium] (MTS) and phenazine ethosulfate into formazan. Compounds 2 and 4b, GM6001 (Merck, 364206) (10–100 µM), or DMSO control were incubated in 48-well Nunc™ plates (Thermo Fisher Scientific,150687) with HEK293T cells, human non-OA chondrocytes, porcine cartilage explants, or human OA cartilage explants for 72 h. At least 3 independent experiments were carried out with 3 technical replicates each. For experiments involving human samples, independent experiments were carried out on 3 different donors. Absorbance at 490 nm was measured on a SpectraMax i3x Multi-Mode Platform (Molecular Devices). Cell viability was normalized to DMSO controls.

Data set [4] has as its system human OA cartilage explants. Nature of the data set: Cell viability MTS assay. Format: cell-based. The conditions noted are these: 100 µM; 72 h; vs DMSO control. As for the experimental part:
Human OA cartilage was obtained from Clatterbridge Hospital, Wirral, UK, following total knee arthroplasty procedures with informed patient consent in full compliance with national and institutional ethical requirements, the United Kingdom Human Tissue Act, and the Declaration of Helsinki (REC 18/WA/0344). Explants (~ 36 mm^3, ~ 40 mg wet volume/weight) from each of 3 donors were placed in one well of a 48-well plate and allowed to rest for 24 h in 1 ml of DMEM containing 10% FBS before use. The medium was replaced, and the cartilage was rested for a further 24 h in 1 ml DMEM at 37 °C before assays.
as §1, with “For experiments involving human samples, independent experiments were carried out on 3 different donors.” left out, “Cell viability was normalized to DMSO controls.” left out

As for `CCC(C)N(Cc1cn(CCCO[C@@H]2O[C@H](CO)[C@@H](O[C@@H]3O[C@H](CO)[C@H](O)[C@H](O)[C@H]3O)[C@H](O)[C@H]2NC(C)=O)nn1)S(=O)(=O)c1ccc(-c2ccccc2)cc1` (stereo partly drawn) [compound 2, N-((2R,3R,4R,5 S,6R)-2-(3-(4-((N-(sec-butyl)-[1,1’-biphenyl]-4-sulfonamido)methyl)-1H-1,2,3-triazol-1-yl)propoxy)-4-hydroxy-6-(hydroxymethyl)-5-(((2 S,3R,4 S,5R,6R)-3,4,5-trihydroxy-6-(hydroxymethyl)tetrahydro-2 H-pyran-2-yl)oxy)tetrahydro-2 H-pyran-3-yl)acetamide], the inhibition at 10 µM in data set [1] (10 µM) stood at 63%. In addition, the inhibition at 100 µM in data set [1] (100 µM) stood at 85%. Besides, in data set [2], the solubility is 300 µM (≈ 238 µg/mL). The “inhibition of cell viability” value in data set [3] (50 µM) and in data set [3] (100 µM) was “No significant effect” throughout. For the same molecule, in data set [4], the “effect on cell viability” value is recorded as “no effect on cell viability was observed”.

Broadly, the inhibition is the share of the control response that was lost under treatment. Usually solubility stands for the concentration that dissolves in the medium under given conditions.
